{
  "source": "patent US5183821A",
  "about": "“Method for treating leukemias using N-(2-dimethylaminoethyl)-3-amino-1,8-naphthalimide for treating leukemias and solid tumors” (priority 1991, dated 1993)",
  "key": {"[1]": {"tested_on": "beagle dogs", "conditions": "dog, in vivo", "text": "To determine the source of the color, the following analyses were done: HPLC and TLC (for drug); routine urinalyses, orthotolidine reagent strip and sulfosalicylic acid/ammonium sulfate precipitation tests (for occult blood)."}, "[2]": {"tested_on": "beagle dogs", "experiment": "Five daily dose dog toxicity study", "type": "in vivo", "description": "Preclinical toxicity studies of BIDA were completed in CD2F1 Mice, Fischer 344 rats and beagle dogs (4). The animals were injected IV with a single bolus or daily for five days.\nA preclinical toxicology study of benzisoquinolinedione (NSC-308847) was done at Springborn Institute for Bioresearch, Inc. using CD2 F1 mice, Fischer 344 rats and beagle dogs. Animals were injected intravenously on a single dose (X1) or five daily dose (X5) regimen. Bulk drug was titrated with 0.5N HCl to form a salt solution of benzisoquinolinedione at a pH of 5.0-6.5. Sterile 0.9% saline was used for diluting the dosing solutions and was used for the vehicle control animals.\nThe following summarizes the major organ toxicities resulting from IV administration of benzisoquinolinedione to dogs."}, "[3]": {"tested_on": "Colon 38", "experiment": "Experiment 14: Colon 38 s.c., saline with Tween-80, female", "type": "in vivo, Mouse B6 D2 F1 (BDF1)", "text": "Host: Mouse B6 D2 F1 (BDF1)\nInoculum Site: Subcutaneous\nVehicle: Saline with Tween-80\nTreatment schedule (relative to tumor inoculation day): Days 2 and 9\nDay of evaluation (relative to tumor inoculation day): 20\nParameter: Median tumor weight (MTW) estimated from tumor diameter\nNCI minimal activity criteria: Percent T/C≤42\nPercent T/C: Ratio of test (T) evaluation to control (C) evaluation expressed as a percentage"}, "[4]": {"parameters": "species or system human", "text": "Further studies were done using heparinized plasma (two additional human donors) and with EDTA plasma (one donor). […] Human EDTA plasma was compatible with drug at a 1:32 drug/plasma ratio."}},
  "note": "Where “and” joins values, the source holds several entries; their conditions need not be identical. Equal entries are not always repeated. Entries after “also recorded” stand apart in the source; their conditions may differ.",
  "data": [
    {"smiles": "CN(C)CCN1C(=O)c2cccc3cc(N)cc(c23)C1=O", "note": "[Example 9, 1H-Benz[de]isoquinoline-1,3(2H)-dione, 5-amino-2-[2-(dimethylamino)ethyl]]", "values": [
      {"measurement": "blood in urine", "setting": "[1]", "value": "the presence of blood was negligible"},
      {"measurement": "drug-related toxicities", "setting": "[2]; 0.38 mg/kg/day", "value": "No drug-related toxicities were found"},
      {"measurement": "Mortality / lethality", "setting": "[2]; 0.38 mg/kg/day (1/10MELD10)", "value": "0/4"},
      {"measurement": "drug-related toxicities", "setting": "[2]; 3.8 mg/kg/day", "value": "No drug-related toxicities were found"},
      {"measurement": "Mortality / lethality", "setting": "[2]; 3.8 mg/kg/day (MELD10)", "value": "0/4"},
      {"measurement": "gross or microscopic lesions", "setting": "[2]; 11.4 mg/kg/day", "value": "No drug-related gross or microscopic lesions were found"},
      {"measurement": "Mortality / lethality", "setting": "[2]; 11.4 mg/kg/day (3XMELD10), listed as BIDA", "value": "Neither the single injection of 2×MELD10 or the daily×5 injection of the 3×MELD10 caused lethality"},
      {"measurement": "Mortality / lethality", "setting": "[2]; 11.4 mg/kg/day (3XMELD10), listed as benzisoquinolinedione", "value": "no deaths and 0/4"},
      {"measurement": "leukopenia (leukocyte count)", "setting": "[2]; 11.4 mg/kg/day, all four dogs", "value": "3.5-6.6 ×10^3 /cmm"},
      {"measurement": "Nervous system signs", "setting": "[2]; 11.4 mg/kg/day, days 2 and/or 3", "value": "Three of four dogs showed signs indicating nervous system toxicity"},
      {"measurement": "BUN", "setting": "[2]; 11.4 mg/kg/day, one dog, day 8", "value": 27, "unit": "mg/dL"},
      {"measurement": "decrease in hemoglobin, hematocrit and red blood cells below pretest values", "setting": "[2]; 11.4 mg/kg/day, two dogs, day 4 or 8", "value": "15-24%"},
      {"measurement": "toxicity summary, dogs", "setting": "[2]; five daily doses i.v., listed as benzisoquinolinedione", "value": "reversible toxicity to the hematopoietic system, kidney and liver; also recorded: Signs indicative of pain and/or neurotoxicity; also recorded: No drug-related gross or microscopic lesions"},
      {"measurement": "Median tumor weight (MTW)", "setting": "[3]; 2.00 mg/kg i.p.", "value": 2141},
      {"measurement": "Percent T/C", "setting": "[3]; 2.00 mg/kg i.p.", "value": 111, "unit": "%"},
      {"measurement": "Median tumor weight (MTW)", "setting": "[3]; 4.00 mg/kg i.p.", "value": 1872},
      {"measurement": "Percent T/C", "setting": "[3]; 4.00 mg/kg i.p.", "value": 97, "unit": "%"},
      {"measurement": "Median tumor weight (MTW)", "setting": "[3]; 8.00 mg/kg i.p.", "value": 1687},
      {"measurement": "Percent T/C", "setting": "[3]; 8.00 mg/kg i.p.", "value": 87, "unit": "%"},
      {"measurement": "Median tumor weight (MTW)", "setting": "[3]; 16.00 mg/kg i.p.", "value": 2748},
      {"measurement": "Percent T/C", "setting": "[3]; 16.00 mg/kg i.p.", "value": 142, "unit": "%"},
      {"measurement": "Median tumor weight (MTW)", "setting": "[3]; 32.00 mg/kg i.p.", "value": 1013},
      {"measurement": "Percent T/C", "setting": "[3]; 32.00 mg/kg i.p.", "value": 52, "unit": "%"},
      {"measurement": "Median tumor weight (MTW)", "setting": "[3]; 64.00 mg/kg i.p.", "value": 1132},
      {"measurement": "Percent T/C", "setting": "[3]; 64.00 mg/kg i.p.", "value": 58, "unit": "%"},
      {"measurement": "blood compatibility", "setting": "[4]", "value": "compatible"}
    ]}
  ]
}
